Calls of active or inactive are those of the source. The rule behind the calls is not given here.
What was measured:
NCI-H661 [1] = assay: Antiproliferative activity against human NCI-H661 cells assessed as inhibition of cell viability after 3 days by XTT assay in presence of beta-glucuronidase; assay type: functional, cell-based; conditions: NCI-H661, 72 h
Serum = assay: Stability of the compound in bovine serum assessed as drug degradation at 37 degC measured for 24 hrs; assay type: ADME, Bos taurus; conditions: cattle
Beta-glucuronidase = Beta-glucuronidase (Escherichia coli (strain K12), UniProt P05804); assay: Prodrug activation in phosphate buffer assessed as Escherichia coli beta-glucuronidase-catalysed release of doxorubicin at 0.06 umol at pH 7 after 6 hrs by HPLC analysis; conditions: isolated protein, pH 7, 6 h
Chain of Beta-glucuronidase (P05804 whole entry): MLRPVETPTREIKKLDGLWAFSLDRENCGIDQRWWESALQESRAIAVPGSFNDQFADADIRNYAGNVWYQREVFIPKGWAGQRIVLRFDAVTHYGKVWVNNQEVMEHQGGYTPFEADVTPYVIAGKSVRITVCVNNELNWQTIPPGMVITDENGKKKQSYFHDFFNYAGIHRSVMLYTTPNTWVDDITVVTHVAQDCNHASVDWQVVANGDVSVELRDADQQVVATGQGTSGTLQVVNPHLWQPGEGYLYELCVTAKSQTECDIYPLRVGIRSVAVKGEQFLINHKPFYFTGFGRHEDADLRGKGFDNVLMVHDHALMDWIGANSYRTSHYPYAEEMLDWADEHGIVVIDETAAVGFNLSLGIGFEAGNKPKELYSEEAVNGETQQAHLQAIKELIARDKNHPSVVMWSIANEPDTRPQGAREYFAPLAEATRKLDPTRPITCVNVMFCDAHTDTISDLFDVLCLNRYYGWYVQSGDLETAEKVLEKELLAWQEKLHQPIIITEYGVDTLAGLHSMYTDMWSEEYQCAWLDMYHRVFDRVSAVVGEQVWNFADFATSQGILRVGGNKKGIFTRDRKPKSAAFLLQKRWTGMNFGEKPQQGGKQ

NCI-H661 [2] = assay: Antiproliferative activity against human NCI-H661 cells assessed as inhibition of cell viability at 1000 nM after 3 days by XTT assay; assay type: functional, cell-based
[3] = Stability of the compound in 0.02M phosphate buffer assessed as drug decomposition at 0.06 umol at pH 7 after 10 days by HPLC analysis; assay type: physicochemical; conditions: pH 7, 240 h
NCI-H661 [4] = assay: Ratio of HMR1826 IC50 to compound IC50 for human NCI-H661 cells in presence of beta-glucuronidase; assay type: functional

Row | SMILES | IC50 (NCI-H661 [1]) | Stability (Serum) | Drug metabolism (Beta-glucuronidase) | inhibition (NCI-H661 [2]) | Stability [3] | Ratio IC50 (NCI-H661 [4])
1 | COc1cccc2c1C(=O)c1c(O)c3c(c(O)c1C2=O)C[C@@](O)(C(=O)CO)C[C@@H]3O[C@H]1C[C@H](NC(=O)OCc2ccc(NC(=O)OCc3ccc(O[C@@H]4O[C@H](C(=O)O)[C@@H](O)[C@H](O)[C@H]4O)c([N+](=O)[O-])c3)c(COC(=O)N[C@H]3C[C@H](O[C@H]4C[C@](O)(C(=O)CO)Cc5c(O)c6c(c(O)c54)C(=O)c4c(OC)cccc4C6=O)O[C@@H](C)[C@H]3O)c2)[C@H](O)[C@H](C)O1 | 110 nM | Stable | Active | inactive | Stable | 2
2 | COc1cccc2c1C(=O)c1c(O)c3c(c(O)c1C2=O)C[C@@](O)(C(=O)CO)C[C@@H]3O[C@H]1C[C@H](NC(=O)OCc2ccc(O[C@@H]3O[C@H](C(=O)O)[C@@H](O)[C@H](O)[C@H]3O)c([N+](=O)[O-])c2)[C@H](O)[C@H](C)O1 | 280 nM |  |  |  |  | 
3 | COc1cccc2c1C(=O)c1c(O)c3c(c(O)c1C2=O)C[C@@](O)(C(=O)CO)C[C@@H]3O[C@H]1C[C@H](N)[C@H](O)[C@H](C)O1 [DOXORUBICIN] | 250 nM |  |  |  |  | 

From ChEMBL document CHEMBL3217519, “A self-immolative dendritic glucuronide prodrug of doxorubicin” (Medchemcomm, 2012)
